The results in this text go back to US7138361B2, “Herbicidal heterocycles” (E. I. du Pont de Nemours and Company, priority 2000, dated 2006).

Assay type in all cases: in vivo
In experiment [1] the test system is velvetleaf (Abutilon theophrasti). Put plainly: Test A postemergence, sprayed to runoff. Conditions: approx. eleven days. Set-up: scale not given here. The procedure: (§1) Seeds of barnyardgrass (Echinochloa crus-galli), crabgrass (Digitaria spp.), giant foxtail (Setaria viridis), morning glory (Ipomoea spp.), redroot pigweed (Amaranthus retroflexus) and velvetleaf (Abutilon theophrasti) were planted into a sandy loam soil and treated preemergence by soil drench with test chemicals formulated in a non-phytotoxic solvent mixture which included a surfactant. At the same time, these crop and weed species were also treated postemergence sprayed to runoff with test chemicals formulated in the same manner. Plants ranged in height from two to eighteen cm and were in the one- to two-leaf stage for the postemergence treatment. Treated plants and untreated controls were maintained in a greenhouse for approximately eleven days, after which time all treated plants were compared to untreated controls and visually evaluated for injury. Plant response ratings, summarized in Table A, are based on a 0 to 10 scale where 0 is no effect and 10 is complete control. A dash (-) response means no test results.

For experiment [2], the system named is morning glory (Ipomoea spp.). Put plainly: Test A postemergence, sprayed to runoff. Set-up: scale not given here. The following applies: Morningglory, approx. eleven days. As for the experimental part:
as §1

Experiment [3] deals with redroot pigweed (Amaranthus retroflexus). Put plainly: Test A postemergence, sprayed to runoff. Conditions: approx. eleven days. The procedure:
as §1

In experiment [4] the test system is giant foxtail (Setaria viridis). Put plainly: Test A postemergence, sprayed to runoff. The following applies: approx. eleven days. The procedure:
as §1

Experiment [5] relates to barnyardgrass (Echinochloa crus-galli). Put plainly: Test A postemergence, sprayed to runoff. The following applies: approx. eleven days. The procedure:
as §1

Experiment [6] deals with crabgrass (Digitaria spp.). Put plainly: Test A postemergence, sprayed to runoff. Conditions: approx. eleven days. The procedure: as §1
In experiment [7] the test system is redroot pigweed (Amaranthus retroflexus). Put plainly: Test A preemergence, soil drench. The following applies: approx. eleven days. The procedure: as §1
Experiment [8] deals with giant foxtail (Setaria viridis). Put plainly: Test A preemergence, soil drench. Conditions: approx. eleven days. As for the experimental part: as §1
In experiment [9] the test system is velvetleaf (Abutilon theophrasti). Put plainly: Test A preemergence, soil drench. The following applies: approx. eleven days. The procedure: as §1
Experiment [10] deals with barnyardgrass (Echinochloa crus-galli). Put plainly: Test A preemergence, soil drench. Conditions: approx. eleven days. As for the experimental part:
as §1

The test system of experiment [11] is morning glory (Ipomoea spp.). Put plainly: Test A preemergence, soil drench. Conditions: Morningglory, approx. eleven days. The procedure: as §1
The subject of experiment [12] is crabgrass (Digitaria spp.). Put plainly: Test A preemergence, soil drench. Conditions: approx. eleven days. As for the experimental part: as §1

Take `CCC(C)c1nn(C2CCN(c3cccc(C(F)(F)F)c3)C2=O)cc1Cl` (stereo not drawn) [Compound 13]: the “Plant response rating (visual injury vs untreated controls)” value in experiment [1] (Rate 500 g/ha) stood at 0; in experiment [1] (Rate 2000 g/ha), 0; in [2] (Rate 500 g/ha), 0; in experiment [2] (Rate 2000 g/ha), 0; in experiment [3] (Rate 500 g/ha) it was 20; in experiment [3] (Rate 2000 g/ha), 70. In addition, the “Plant response rating (visual injury vs untreated controls)” value in experiment [4] (Rate 500 g/ha), in experiment [4] (Rate 2000 g/ha), in experiment [5] (Rate 500 g/ha), in [5] (Rate 2000 g/ha), in experiment [6] (Rate 500 g/ha) and in experiment [6] (Rate 2000 g/ha) was 0 throughout. Moreover, the “Plant response rating (visual injury vs untreated controls)” value is 80 in experiment [7] (Rate 500 g/ha); 100 in experiment [7] (Rate 2000 g/ha); 20 in [8] (Rate 500 g/ha); 90 in experiment [8] (Rate 2000 g/ha); 0 in experiment [9] (Rate 500 g/ha); 0 in experiment [9] (Rate 2000 g/ha). In addition, the “Plant response rating (visual injury vs untreated controls)” value in [10] (Rate 500 g/ha) is 0; in [10] (Rate 2000 g/ha), 10; in [11] (Rate 500 g/ha), 0; in experiment [11] (Rate 2000 g/ha) it was 20; in [12] (Rate 500 g/ha), 0; in [12] (Rate 2000 g/ha), 80.

In the case of `CC(C)(C)c1nn(C2CCN(c3cccc(C(F)(F)F)c3)C2=O)cc1Cl` (stereo not drawn) [Compound 14], the “Plant response rating (visual injury vs untreated controls)” value in experiment [1] (Rate 500 g/ha) came out at 0; in experiment [1] (Rate 2000 g/ha), 0; in experiment [2] (Rate 500 g/ha) it was 0; in [2] (Rate 2000 g/ha) it was 0; in experiment [3] (Rate 500 g/ha) it was 0; in experiment [3] (Rate 2000 g/ha) it was 20. In addition, the “Plant response rating (visual injury vs untreated controls)” value in experiment [4] (Rate 500 g/ha), in experiment [4] (Rate 2000 g/ha), in experiment [5] (Rate 500 g/ha), in [5] (Rate 2000 g/ha), in experiment [6] (Rate 500 g/ha) and in experiment [6] (Rate 2000 g/ha) was 0 each time. The “Plant response rating (visual injury vs untreated controls)” value worked out at 40 in experiment [7] (Rate 500 g/ha); 70 in experiment [7] (Rate 2000 g/ha); 0 in experiment [8] (Rate 500 g/ha); 0 in experiment [8] (Rate 2000 g/ha); 0 in [9] (Rate 500 g/ha); 0 in experiment [9] (Rate 2000 g/ha). Further, the “Plant response rating (visual injury vs untreated controls)” value in [10] (Rate 500 g/ha), in experiment [10] (Rate 2000 g/ha), in [11] (Rate 500 g/ha), in experiment [11] (Rate 2000 g/ha), in experiment [12] (Rate 500 g/ha) and in [12] (Rate 2000 g/ha) was 0 in each case.

Consider `O=C1C(n2cccn2)CCN1c1cccc(C(F)(F)F)c1` (stereo not drawn) [Compound 15], for which the “Plant response rating (visual injury vs untreated controls)” value in experiment [1] (Rate 500 g/ha) is on record as 0; in experiment [1] (Rate 2000 g/ha), 10; in experiment [2] (Rate 500 g/ha), 30; in experiment [2] (Rate 2000 g/ha), 20; in experiment [3] (Rate 500 g/ha) it was 0; in experiment [3] (Rate 2000 g/ha), 0. For the same compound, the “Plant response rating (visual injury vs untreated controls)” value in experiment [4] (Rate 500 g/ha), in experiment [4] (Rate 2000 g/ha), in [5] (Rate 500 g/ha), in [5] (Rate 2000 g/ha), in experiment [6] (Rate 500 g/ha) and in [6] (Rate 2000 g/ha) was 10 in each case. Also, the “Plant response rating (visual injury vs untreated controls)” value is given as 30 in experiment [7] (Rate 500 g/ha); 100 in [7] (Rate 2000 g/ha); 50 in experiment [8] (Rate 500 g/ha); 100 in [8] (Rate 2000 g/ha); 30 in [9] (Rate 500 g/ha); 100 in [9] (Rate 2000 g/ha). In addition, the “Plant response rating (visual injury vs untreated controls)” value in experiment [10] (Rate 500 g/ha) is recorded as 10; in [10] (Rate 2000 g/ha) it was 10; in experiment [11] (Rate 500 g/ha), 0; in experiment [11] (Rate 2000 g/ha), 0; in experiment [12] (Rate 500 g/ha), 80; in [12] (Rate 2000 g/ha), 100.

With `Cc1ccn(C2CCN(c3cccc(C(F)(F)F)c3)C2=O)n1` (stereo not drawn) [Compound 16], the “Plant response rating (visual injury vs untreated controls)” value in experiment [1] (Rate 500 g/ha) was 0; in experiment [1] (Rate 2000 g/ha), 20; in [2] (Rate 500 g/ha), 20; in [2] (Rate 2000 g/ha), 20; in [3] (Rate 500 g/ha), 0; in experiment [3] (Rate 2000 g/ha) it was 0. Moreover, the “Plant response rating (visual injury vs untreated controls)” value in [4] (Rate 500 g/ha) turned out to be 0; in experiment [4] (Rate 2000 g/ha), 30; in [5] (Rate 500 g/ha) it was 0; in experiment [5] (Rate 2000 g/ha), 10; in [6] (Rate 500 g/ha), 10; in experiment [6] (Rate 2000 g/ha) it was 20. The “Plant response rating (visual injury vs untreated controls)” value amounted to 80 in experiment [7] (Rate 500 g/ha); 100 in experiment [7] (Rate 2000 g/ha); 80 in experiment [8] (Rate 500 g/ha); 90 in experiment [8] (Rate 2000 g/ha); 10 in [9] (Rate 500 g/ha); 100 in [9] (Rate 2000 g/ha). For the same compound, the “Plant response rating (visual injury vs untreated controls)” value is listed as 10 in experiment [10] (Rate 500 g/ha); 70 in [10] (Rate 2000 g/ha); 0 in experiment [11] (Rate 500 g/ha); 20 in experiment [11] (Rate 2000 g/ha); 100 in [12] (Rate 500 g/ha); 100 in experiment [12] (Rate 2000 g/ha).
